From ChEMBL document CHEMBL5465560, “Selectivity Literature for EUbOPEN Chemogenomic Library” (2024)
pIC50: −log10 of the molar value.

Key:
[1] = target: T1, Ephrin type-A receptor 8 (Homo sapiens) (UniProt P29322); assay: Selectivity interaction (KinomeScan (DiscoverX)) EUB0001079a EPHA8; settings: at 1 µM
T1 sequence (whole entry): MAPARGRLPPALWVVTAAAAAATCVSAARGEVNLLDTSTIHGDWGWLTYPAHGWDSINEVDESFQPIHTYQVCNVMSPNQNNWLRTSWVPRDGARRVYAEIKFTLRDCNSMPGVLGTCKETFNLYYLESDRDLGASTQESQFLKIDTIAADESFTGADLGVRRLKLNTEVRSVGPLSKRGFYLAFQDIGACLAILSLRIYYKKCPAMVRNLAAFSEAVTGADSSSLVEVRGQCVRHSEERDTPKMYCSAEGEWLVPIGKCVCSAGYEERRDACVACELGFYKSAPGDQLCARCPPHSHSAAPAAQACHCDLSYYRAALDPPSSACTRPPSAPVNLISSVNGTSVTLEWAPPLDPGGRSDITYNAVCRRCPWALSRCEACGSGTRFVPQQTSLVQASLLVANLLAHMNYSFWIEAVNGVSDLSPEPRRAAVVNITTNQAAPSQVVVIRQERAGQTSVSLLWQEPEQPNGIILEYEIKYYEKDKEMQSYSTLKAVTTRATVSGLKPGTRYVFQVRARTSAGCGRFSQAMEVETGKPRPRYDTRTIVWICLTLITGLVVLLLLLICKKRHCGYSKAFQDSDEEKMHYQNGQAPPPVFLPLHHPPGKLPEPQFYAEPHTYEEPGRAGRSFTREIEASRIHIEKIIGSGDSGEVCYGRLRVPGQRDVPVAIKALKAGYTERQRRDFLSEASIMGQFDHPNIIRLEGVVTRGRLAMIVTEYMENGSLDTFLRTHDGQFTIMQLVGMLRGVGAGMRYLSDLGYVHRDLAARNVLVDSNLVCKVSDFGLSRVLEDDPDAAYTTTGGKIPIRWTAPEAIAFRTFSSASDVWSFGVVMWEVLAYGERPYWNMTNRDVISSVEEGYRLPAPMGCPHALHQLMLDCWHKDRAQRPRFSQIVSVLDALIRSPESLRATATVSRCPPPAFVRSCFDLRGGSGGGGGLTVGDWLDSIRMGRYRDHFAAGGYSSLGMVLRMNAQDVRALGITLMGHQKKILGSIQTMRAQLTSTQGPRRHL

[2] = target: AP2-associated protein kinase 1 (Homo sapiens, UniProt Q2M2I8); assay: Selectivity interaction (KinomeScan (DiscoverX)) EUB0000666a AAK1; settings: at 10 µM
[3] = target: T2, Muscle, skeletal receptor tyrosine-protein kinase (Homo sapiens) (UniProt O15146); settings: at 10 µM
T2 sequence (whole entry): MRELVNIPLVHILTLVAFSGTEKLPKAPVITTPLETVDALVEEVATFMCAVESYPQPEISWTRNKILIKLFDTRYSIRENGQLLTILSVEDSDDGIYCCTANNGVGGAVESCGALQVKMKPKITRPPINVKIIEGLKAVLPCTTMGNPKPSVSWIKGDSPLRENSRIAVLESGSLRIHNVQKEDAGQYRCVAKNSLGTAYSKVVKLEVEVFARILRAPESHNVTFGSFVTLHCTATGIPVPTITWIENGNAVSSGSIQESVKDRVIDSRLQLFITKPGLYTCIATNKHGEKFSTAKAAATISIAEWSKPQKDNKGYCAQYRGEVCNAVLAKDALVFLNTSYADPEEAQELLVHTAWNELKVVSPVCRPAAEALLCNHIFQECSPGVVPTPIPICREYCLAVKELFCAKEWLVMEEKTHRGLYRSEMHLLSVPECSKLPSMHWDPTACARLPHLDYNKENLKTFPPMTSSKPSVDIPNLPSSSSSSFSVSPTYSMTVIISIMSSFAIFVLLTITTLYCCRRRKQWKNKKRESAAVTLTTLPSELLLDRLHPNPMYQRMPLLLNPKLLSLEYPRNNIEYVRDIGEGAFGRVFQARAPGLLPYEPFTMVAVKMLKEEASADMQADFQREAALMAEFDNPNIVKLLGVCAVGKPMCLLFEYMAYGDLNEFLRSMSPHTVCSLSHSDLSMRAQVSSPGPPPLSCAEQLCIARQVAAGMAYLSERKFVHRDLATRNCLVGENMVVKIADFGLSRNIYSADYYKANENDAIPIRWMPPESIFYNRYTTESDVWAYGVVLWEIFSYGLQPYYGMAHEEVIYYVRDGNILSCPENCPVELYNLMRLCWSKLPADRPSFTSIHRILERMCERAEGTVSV

[4] = target: MAP kinase-activated protein kinase 3 (Homo sapiens) (UniProt Q16644); assay: Selectivity interaction (Kinase screening (Nanosyn)) EUB0000604a MAPKAPK3
[5] = target: Dual specificity tyrosine-phosphorylation-regulated kinase 1A (Homo sapiens, UniProt Q13627); assay: Selectivity interaction (Enzymatic assay (Eurofins)) EUB0001049a DYRK1A
[6] = target: T3, Serine/threonine-protein kinase RIO3 (Homo sapiens) (UniProt O14730); assay: Selectivity interaction (KinomeScan (DiscoverX)) EUB0001619a RIOK3; settings: at 1 µM
T3 sequence (whole entry): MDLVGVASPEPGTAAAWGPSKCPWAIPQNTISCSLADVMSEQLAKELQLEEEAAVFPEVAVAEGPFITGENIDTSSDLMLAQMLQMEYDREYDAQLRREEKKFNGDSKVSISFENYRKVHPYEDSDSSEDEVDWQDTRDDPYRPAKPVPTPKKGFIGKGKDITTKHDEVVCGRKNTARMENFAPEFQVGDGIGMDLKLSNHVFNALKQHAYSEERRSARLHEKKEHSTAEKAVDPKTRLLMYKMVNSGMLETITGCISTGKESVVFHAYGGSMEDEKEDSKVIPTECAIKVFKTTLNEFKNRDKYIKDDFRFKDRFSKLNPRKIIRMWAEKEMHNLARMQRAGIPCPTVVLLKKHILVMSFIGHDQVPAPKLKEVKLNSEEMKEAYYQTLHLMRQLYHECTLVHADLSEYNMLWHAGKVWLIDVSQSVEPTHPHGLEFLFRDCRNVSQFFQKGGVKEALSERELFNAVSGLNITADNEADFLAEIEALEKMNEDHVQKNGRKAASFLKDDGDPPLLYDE

Chain of AP2-associated protein kinase 1 (Q2M2I8 whole entry, looked up): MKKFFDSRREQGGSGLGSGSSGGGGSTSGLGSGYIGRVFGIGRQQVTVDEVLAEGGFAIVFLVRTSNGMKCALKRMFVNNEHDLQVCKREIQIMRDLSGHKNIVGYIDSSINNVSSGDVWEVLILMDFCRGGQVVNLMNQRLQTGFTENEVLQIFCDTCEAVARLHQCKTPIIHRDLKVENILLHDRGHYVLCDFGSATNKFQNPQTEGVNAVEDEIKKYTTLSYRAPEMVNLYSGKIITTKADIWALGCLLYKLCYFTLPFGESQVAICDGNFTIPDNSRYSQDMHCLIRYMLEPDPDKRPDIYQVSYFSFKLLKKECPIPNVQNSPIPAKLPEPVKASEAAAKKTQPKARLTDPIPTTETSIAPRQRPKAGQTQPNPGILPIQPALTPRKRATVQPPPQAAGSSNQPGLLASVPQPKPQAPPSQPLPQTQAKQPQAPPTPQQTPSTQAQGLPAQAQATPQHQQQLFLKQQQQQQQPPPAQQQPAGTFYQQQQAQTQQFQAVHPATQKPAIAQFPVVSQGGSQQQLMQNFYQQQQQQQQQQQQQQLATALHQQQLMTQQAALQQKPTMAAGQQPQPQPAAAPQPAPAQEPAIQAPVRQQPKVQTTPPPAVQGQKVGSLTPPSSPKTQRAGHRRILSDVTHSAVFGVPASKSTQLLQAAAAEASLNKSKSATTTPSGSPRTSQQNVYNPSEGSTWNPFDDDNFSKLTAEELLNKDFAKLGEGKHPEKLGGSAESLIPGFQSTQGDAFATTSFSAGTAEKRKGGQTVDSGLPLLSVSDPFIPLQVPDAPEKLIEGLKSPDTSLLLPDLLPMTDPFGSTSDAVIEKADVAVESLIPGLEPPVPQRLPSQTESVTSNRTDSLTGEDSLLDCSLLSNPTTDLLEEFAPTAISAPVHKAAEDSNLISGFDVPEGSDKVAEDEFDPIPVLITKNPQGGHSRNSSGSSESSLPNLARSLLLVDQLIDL
Chain of MAP kinase-activated protein kinase 3 (Homo sapiens) (Q16644 whole entry, looked up): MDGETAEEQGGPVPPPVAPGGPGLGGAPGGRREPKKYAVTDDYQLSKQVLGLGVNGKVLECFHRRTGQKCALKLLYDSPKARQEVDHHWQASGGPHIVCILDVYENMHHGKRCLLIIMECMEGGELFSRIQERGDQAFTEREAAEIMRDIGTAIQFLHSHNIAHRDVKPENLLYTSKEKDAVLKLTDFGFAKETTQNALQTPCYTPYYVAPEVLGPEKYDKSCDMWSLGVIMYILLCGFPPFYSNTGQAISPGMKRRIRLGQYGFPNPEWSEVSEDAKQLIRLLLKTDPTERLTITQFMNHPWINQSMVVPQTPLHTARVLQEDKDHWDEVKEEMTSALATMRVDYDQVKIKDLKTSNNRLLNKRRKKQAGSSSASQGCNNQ

Compound `Nc1cnc(N2CCc3cc(S(=O)(=O)Nc4c(F)cc(Cl)cc4F)cc(N4CCCC4=O)c32)nc1` [TP-020n] has a % of control [1] of 100%.

`O=C(NOC[C@H](O)CO)c1ccc(F)c(F)c1Nc1ccc(I)cc1F` gave a % of control [2] of 100%.

Work on `Cc1cc([C@@H](C)Nc2ccccc2C(=O)O)c2nc(N3CCOCC3)cc(=O)n2c1` [AZD-6482] yielded a % of control [3] of 100%.

Work on `Cc1cnc(Nc2ccc(F)cc2Cl)nc1-c1c[nH]c(C(=O)N[C@H](CO)c2cccc(Cl)c2)c1` yielded a % of inhibition [4] of 5%.

With `COc1cc(Nc2nc(C)cc(-c3cnn4nc(OC)ccc34)n2)cc(C(F)(F)F)c1` the pIC50 [5] was < 5.00.

`N#Cc1cccc(-c2c[nH]c3ncnc(N4CCOCC4)c23)c1` gave a % of control [6] of 4.8%.
